Laboratory results published in patent US20210254272A1, “TEXTILES HAVING ANTIMICROBIAL PROPERTIES” (Livinguard AG, priority 2015, published 2021).

System: E. coli (ATCC 25922)
Assay: AATCC Test Method 100-2012 antibacterial activity of the treated textile, after 25 washes and 12 abrasion cycles, contact time 60 minutes
Format: cell-based
Conditions: for Performance Test-Log reduction of antimicrobial performance: pad process, 2 min
Protocol: The antibacterial activity of the textile was tested in accordance with AATCC Test Method 100-2012. Prior to the test, the fabric was cut into coupons of 2×4 inches and washed separately 25 times, and exposed to 12 abrasion cycles, as per US EPA protocol 90072PA4 (described further below). The tests were made against E. coli (ATCC 25922). Contact time was 60 minutes, after inoculating with 10^8 CFU per coupon.

## CCCCCCCCCCCCCCCCCC[N+](C)(C)CCC[Si](OC)(OC)OC [Organosilane, dimethyloctadecyl[3-(trimethoxysilyl)propyl] ammonium chloride]
Single agent 5 gm/lit, curing 180° C.
  Performance Test-Log reduction of antimicrobial performance: 0.93 Log
Single agent 10 gm/lit, curing 120° C.
  Performance Test-Log reduction of antimicrobial performance: 0.38 Log
Single agent 10 gm/lit, curing 140° C.
  Performance Test-Log reduction of antimicrobial performance: 0.53 Log
Single agent 10 gm/lit, curing 150° C.
  Performance Test-Log reduction of antimicrobial performance: 0.62 Log
Single agent 10 gm/lit, curing 160° C.
  Performance Test-Log reduction of antimicrobial performance: 0.98 Log
Single agent 10 gm/lit, curing 180° C.
  Performance Test-Log reduction of antimicrobial performance: 2.21 Log
Pure cotton fabric, exhaust 80° C., 60 min, dosage 0.1% o.w.f
  Log reduction of antimicrobial performance: 0.81 Log
Pure cotton fabric, exhaust 80° C., 60 min, dosage 0.2% o.w.f
  Log reduction of antimicrobial performance: 1.67 Log
Pure cotton fabric, exhaust 80° C., 60 min, dosage 0.5% o.w.f
  Log reduction of antimicrobial performance: 1.83 Log
Pure cotton fabric, exhaust 80° C., 60 min, dosage 0.8% o.w.f
  Log reduction of antimicrobial performance: 2.17 Log
Pure cotton fabric, exhaust 80° C., 60 min, dosage 1.0% o.w.f
  Log reduction of antimicrobial performance: 2.56 Log
Pure cotton, exhaust 80° C., 1% o.w.f, 60 min, curing 180° C., curing dwell time 0.5 min
  Log reduction of antimicrobial performance: 0.3 Log
Pure cotton, exhaust 80° C., 1% o.w.f, 60 min, curing 180° C., curing dwell time 1.0 min
  Log reduction of antimicrobial performance: 1.1 Log
Pure cotton, exhaust 80° C., 1% o.w.f, 60 min, curing 180° C., curing dwell time 1.5 min
  Log reduction of antimicrobial performance: 1.8 Log
Pure cotton, exhaust 80° C., 1% o.w.f, 60 min, curing 180° C., curing dwell time 2.0 min
  Log reduction of antimicrobial performance: 2.5 Log
Pure cotton, exhaust 80° C., 1% o.w.f, 60 min, curing 180° C., curing dwell time 2.5 min
  Log reduction of antimicrobial performance: 2.4 Log
Pure cotton, exhaust 80° C., 1% o.w.f, 60 min, curing 180° C., curing dwell time 3.0 min
  Log reduction of antimicrobial performance: 1.4 Log
Pure polyester fabric, exhaust 80° C., 60 min, curing 180° C., curing dwell time 0.5 min
  Log reduction of antimicrobial performance: 0.4 Log
Pure polyester fabric, exhaust 80° C., 60 min, curing 180° C., curing dwell time 1.0 min
  Log reduction of antimicrobial performance: 1.2 Log
Pure polyester fabric, exhaust 80° C., 60 min, curing 180° C., curing dwell time 1.5 min
  Log reduction of antimicrobial performance: 1.7 Log
Pure polyester fabric, exhaust 80° C., 60 min, curing 180° C., curing dwell time 2.0 min
  Log reduction of antimicrobial performance: 2.75 Log
Pure polyester fabric, exhaust 80° C., 60 min, curing 180° C., curing dwell time 2.5 min
  Log reduction of antimicrobial performance: 2.45 Log
Pure polyester fabric, exhaust 80° C., 60 min, curing 180° C., curing dwell time 3.0 min
  Log reduction of antimicrobial performance: 1.3 Log
Pure polyester fabric, exhaust 80° C., 60 min, dosage 0.1% o.w.f
  Log reduction of antimicrobial performance: 0.72 Log
Pure polyester fabric, exhaust 80° C., 60 min, dosage 0.2% o.w.f
  Log reduction of antimicrobial performance: 1.65 Log
Pure polyester fabric, exhaust 80° C., 60 min, dosage 0.5% o.w.f
  Log reduction of antimicrobial performance: 1.75 Log
Pure polyester fabric, exhaust 80° C., 60 min, dosage 0.8% o.w.f
  Log reduction of antimicrobial performance: 2.16 Log
Pure polyester fabric, exhaust 80° C., 60 min, dosage 1.0% o.w.f
  Log reduction of antimicrobial performance: 2.58 Log
Solution dosage 0.10% o.w.f, exhaust temperature 40° C., process time 60 min
  Log reduction of antimicrobial performance: 0 Log
Solution dosage 0.10% o.w.f, exhaust temperature 60° C., process time 60 min
  Log reduction of antimicrobial performance: 0 Log
Solution dosage 0.10% o.w.f, exhaust temperature 65° C., process time 60 min
  Log reduction of antimicrobial performance: 0 Log
Solution dosage 0.10% o.w.f, exhaust temperature 70° C., process time 60 min
  Log reduction of antimicrobial performance: 0 Log
Solution dosage 0.10% o.w.f, exhaust temperature 75° C., process time 60 min
  Log reduction of antimicrobial performance: 0.63 Log
Solution dosage 0.10% o.w.f, exhaust temperature 80° C., process time 60 min
  Log reduction of antimicrobial performance: 0.78 Log
Solution dosage 0.10% o.w.f, exhaust temperature 85° C., process time 60 min
  Log reduction of antimicrobial performance: 0.81 Log
Solution dosage 0.10% o.w.f, exhaust temperature 90° C., process time 60 min
  Log reduction of antimicrobial performance: 0.82 Log
Solution dosage 0.10% o.w.f, exhaust temperature 95° C., process time 60 min
  Log reduction of antimicrobial performance: 0.82 Log
Solution dosage 0.20% o.w.f, exhaust temperature 40° C., process time 60 min
  Log reduction of antimicrobial performance: 0 Log
Solution dosage 0.20% o.w.f, exhaust temperature 60° C., process time 60 min
  Log reduction of antimicrobial performance: 0.09 Log
Solution dosage 0.20% o.w.f, exhaust temperature 65° C., process time 60 min
  Log reduction of antimicrobial performance: 0.10 Log
Solution dosage 0.20% o.w.f, exhaust temperature 70° C., process time 60 min
  Log reduction of antimicrobial performance: 0.17 Log
Solution dosage 0.20% o.w.f, exhaust temperature 75° C., process time 60 min
  Log reduction of antimicrobial performance: 0.92 Log
Solution dosage 0.20% o.w.f, exhaust temperature 80° C., process time 60 min
  Log reduction of antimicrobial performance: 1.52 Log
Solution dosage 0.20% o.w.f, exhaust temperature 85° C., process time 60 min
  Log reduction of antimicrobial performance: 1.65 Log
Solution dosage 0.20% o.w.f, exhaust temperature 90° C., process time 60 min
  Log reduction of antimicrobial performance: 1.65 Log
Solution dosage 0.20% o.w.f, exhaust temperature 95° C., process time 60 min
  Log reduction of antimicrobial performance: 1.65 Log
Solution dosage 0.50% o.w.f, exhaust temperature 40° C., process time 60 min
  Log reduction of antimicrobial performance: 0 Log
Solution dosage 0.50% o.w.f, exhaust temperature 60° C., process time 60 min
  Log reduction of antimicrobial performance: 0.17 Log
Solution dosage 0.50% o.w.f, exhaust temperature 65° C., process time 60 min
  Log reduction of antimicrobial performance: 0.18 Log
Solution dosage 0.50% o.w.f, exhaust temperature 70° C., process time 60 min
  Log reduction of antimicrobial performance: 0.19 Log
Solution dosage 0.50% o.w.f, exhaust temperature 75° C., process time 60 min
  Log reduction of antimicrobial performance: 1.23 Log
Solution dosage 0.50% o.w.f, exhaust temperature 80° C., process time 60 min
  Log reduction of antimicrobial performance: 1.78 Log
Solution dosage 0.50% o.w.f, exhaust temperature 85° C., process time 60 min
  Log reduction of antimicrobial performance: 1.82 Log
Solution dosage 0.50% o.w.f, exhaust temperature 90° C., process time 60 min
  Log reduction of antimicrobial performance: 1.83 Log
Solution dosage 0.50% o.w.f, exhaust temperature 95° C., process time 60 min
  Log reduction of antimicrobial performance: 1.83 Log
Solution dosage 0.80% o.w.f, exhaust temperature 40° C., process time 60 min
  Log reduction of antimicrobial performance: 0 Log
Solution dosage 0.80% o.w.f, exhaust temperature 60° C., process time 60 min
  Log reduction of antimicrobial performance: 0.23 Log
Solution dosage 0.80% o.w.f, exhaust temperature 65° C., process time 60 min
  Log reduction of antimicrobial performance: 0.24 Log
Solution dosage 0.80% o.w.f, exhaust temperature 70° C., process time 60 min
  Log reduction of antimicrobial performance: 0.36 Log
Solution dosage 0.80% o.w.f, exhaust temperature 75° C., process time 60 min
  Log reduction of antimicrobial performance: 1.32 Log
Solution dosage 0.80% o.w.f, exhaust temperature 80° C., process time 60 min
  Log reduction of antimicrobial performance: 2.13 Log
Solution dosage 0.80% o.w.f, exhaust temperature 85° C., process time 60 min
  Log reduction of antimicrobial performance: 2.23 Log
Solution dosage 0.80% o.w.f, exhaust temperature 90° C., process time 60 min
  Log reduction of antimicrobial performance: 2.34 Log
Solution dosage 0.80% o.w.f, exhaust temperature 95° C., process time 60 min
  Log reduction of antimicrobial performance: 2.34 Log
Solution dosage 1.00% o.w.f, exhaust temperature 40° C., process time 60 min
  Log reduction of antimicrobial performance: 0 Log
Solution dosage 1.00% o.w.f, exhaust temperature 60° C., process time 60 min
  Log reduction of antimicrobial performance: 0.28 Log
Solution dosage 1.00% o.w.f, exhaust temperature 65° C., process time 60 min
  Log reduction of antimicrobial performance: 0.29 Log
Solution dosage 1.00% o.w.f, exhaust temperature 70° C., process time 60 min
  Log reduction of antimicrobial performance: 0.42 Log
Solution dosage 1.00% o.w.f, exhaust temperature 75° C., process time 60 min
  Log reduction of antimicrobial performance: 1.45 Log
Solution dosage 1.00% o.w.f, exhaust temperature 80° C., process time 60 min
  Log reduction of antimicrobial performance: 2.56 Log
Solution dosage 1.00% o.w.f, exhaust temperature 85° C., process time 60 min
  Log reduction of antimicrobial performance: 2.69 Log
Solution dosage 1.00% o.w.f, exhaust temperature 90° C., process time 60 min
  Log reduction of antimicrobial performance: 2.71 Log
Solution dosage 1.00% o.w.f, exhaust temperature 95° C., process time 60 min
  Log reduction of antimicrobial performance: 2.71 Log
